The source of these data is ChEMBL document CHEMBL1201862, “PubChem BioAssay data set” (2004).

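Protocol summary: plate cells (96-well), add compound at 5 concentrations, incubate 48 h, interpolate endpoints linearly. GI50 = concentration required for 50% inhibition of growth.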 Activity calls are given as the source filed them. No stated cut-off is given here; in the data, active = GI50 up to about 1.1 µM and inactive = higher.

Some test systems named below: NCI-H460; MDA-N; SK-MEL-28; NCI-H226; RPMI-8226; SK-MEL-5; SF-268; CAKI-1; MDA-MB-435; HT-29; UACC-62; UACC-257; DU-145; SNB-75; OVCAR-8; HL-60; HCT-15; OVCAR-3; MCF7; SK-OV-3.
Common to all, as to experiment: NCI tumour cell line growth inhibition, 48 h

Regarding `Nc1nccc(NCC2(CO)CC(OCc3ccccc3)C2)n1` (stereo not given), the GI50 in the experiment on NCI-H460 was > 100 µM (inactive); in the experiment with MDA-N, > 100 µM (inactive); with SK-MEL-28 it was > 100 µM (inactive); with NCI-H226, > 100 µM (inactive); with RPMI-8226, > 100 µM (inactive); in the experiment with SK-MEL-5, 35.8 µM (inactive). Also, the GI50 is > 10 µM (inactive) with SF-268; > 100 µM (inactive) in the experiment with CAKI-1; > 100 µM (inactive) in the experiment with MDA-MB-435; > 100 µM (inactive) in the experiment with HT-29; > 100 µM (inactive) with UACC-62; > 100 µM (inactive) in the experiment on UACC-257. The GI50 in the experiment with DU-145 was 79.4 µM (inactive); in the experiment with SNB-75, > 100 µM (inactive); with OVCAR-8, > 100 µM (inactive); in the experiment on HL-60, > 100 µM (inactive); in the experiment on HCT-15, greater than 100 µM; in the experiment with OVCAR-3, 87.5 µM (inactive). In addition, the GI50 in the experiment on MCF7 was > 100 µM (inactive).

As to `CNC(=S)/C(C#N)=C(\N)N1CCN(C)CC1`, the GI50 in the experiment on MDA-N, in the experiment on NCI-H226, in the experiment with RPMI-8226, in the experiment on SK-MEL-5, in the experiment with SF-268 and in the experiment on CAKI-1 was > 100 µM (inactive) throughout. The GI50 with MDA-MB-435, in the experiment on HT-29, in the experiment on UACC-62, with UACC-257, with DU-145 and in the experiment with SNB-75 was > 100 µM (inactive) throughout. Also, the GI50 in the experiment with OVCAR-8 was > 100 µM (inactive); in the experiment on HL-60 it was > 100 µM (inactive); with HCT-15 it was greater than 100 µM; in the experiment on OVCAR-3, > 100 µM (inactive); with SK-OV-3, > 100 µM (inactive); in the experiment on MCF7, > 100 µM (inactive).

Consider `CCOC(=O)c1nc2ccc(C(F)(F)F)cc2nc1NCc1ccc(F)cc1`, for which the GI50 with NCI-H460 is 19.2 µM (inactive); in the experiment on MDA-N, 25.4 µM (inactive); in the experiment on SK-MEL-28 it was 44 µM (inactive); with NCI-H226, 29 µM (inactive); in the experiment with RPMI-8226, 23.5 µM (inactive); in the experiment with SF-268, 11.5 µM (inactive). Further, the GI50 with CAKI-1 was 41.5 µM (inactive); in the experiment on MDA-MB-435, 31.9 µM (inactive); in the experiment on HT-29, 35.4 µM (inactive); in the experiment on UACC-62, 23.1 µM (inactive); in the experiment with UACC-257, 27.5 µM (inactive); with DU-145, 46.5 µM (inactive). The GI50 in the experiment with SNB-75 was 91.4 µM (inactive); in the experiment with OVCAR-8, 30.9 µM (inactive); in the experiment on HL-60, 29.6 µM (inactive); in the experiment on HCT-15 it was 29.4 µM; with OVCAR-3 it was 50.2 µM (inactive); with SK-OV-3, 43 µM (inactive). Also, in the experiment with MCF7, the GI50 was 30.9 µM (inactive).

Consider `O=C(c1ccccc1)N1CCN(C(=S)NC2CCCCC2)C1=S`, for which the GI50 in the experiment on NCI-H460 was 21.4 µM (inactive); with MDA-N, 19.4 µM (inactive); with SK-MEL-28, 14.9 µM (inactive); with NCI-H226 it was 14.7 µM (inactive); with SK-MEL-5 it was 17.4 µM (inactive); in the experiment on SF-268, 16.8 µM (inactive). Further, the GI50 in the experiment on CAKI-1 is 24 µM (inactive); in the experiment with MDA-MB-435, 19.5 µM (inactive); with HT-29 it was 20.2 µM (inactive); with UACC-62, 19.3 µM (inactive); in the experiment with UACC-257 it was 18.7 µM (inactive); with DU-145, 21.8 µM (inactive). For the same compound, the GI50 in the experiment with SNB-75 is 11.1 µM (inactive); with OVCAR-8, 17 µM (inactive); in the experiment with HL-60, 21.9 µM (inactive); in the experiment on HCT-15, 15.8 µM; with OVCAR-3, 15.6 µM (inactive); in the experiment on SK-OV-3 it was 25.7 µM (inactive). Also, in the experiment on MCF7, the GI50 is 22.8 µM (inactive).
